# Legend:
# [1] = system: human IgG; assay: Structure-fluorescence relationships: Ig Orange vs BD-69 with human IgG; format: binding; conditions: 10 μM each, 20 mM HEPES pH 7.4
# Experimental: Ig Orange (BDM-69) (10 μM) and BD-69 (10 μM) were incubated with different concentrations of human IgG in 20 mM HEPES buffer (pH 7.4) and the fluorescence intensities were recorded on a SpectraMax M2 plate reader (excitation: 530 nm; emission: 590 nm), as shown in FIG. 7a. Values are represented as means (n=3) of the fluorescence fold increase after incubation with the protein.
# [2] = target: human IgG; assay: Fluorescence-based fractional saturation curve; conditions: 10 μM dye, 20 mM HEPES pH 7.4, exc 530 nm, em 590 nm; read-out: dissociation constant Kd (fluorescence binding saturation curve)
# Experimental: Ig Orange (10 μM) was incubated with different concentrations of human IgG in 20 mM HEPES buffer (pH 7.4) and the fluorescence intensities were recorded on a SpectraMax M2 plate reader (excitation: 530 nm; emission: 590 nm) (FIG. 9).
# [3] = system: human IgG; assay: Screening the BDM library: fluorescence response against proteins and peptides; format: binding; conditions: 10 μM dye
# Experimental: Fluorescence intensities were measured using a Spectra Max Gemini XSF plate reader in a 384-well plate. BDM compounds were dissolved to a final concentration of 10 μM (20 mM HEPES buffer, pH 7.4, containing 1% DMSO) and incubated with different proteins and peptides at different serial concentrations in 20 mM HEPES buffer (pH 7.4) (FIG. 1a). The excitation wavelength was set at 510 nm, and the emission spectra were recorded from 560 to 700 nm. Fluorescence fold increase ratios were determined by referring the maximum fluorescence intensity emission of BDM compounds in the presence of the screened proteins and peptides to the maximum fluorescence intensity emission of BDM compounds in 20 mM HEPES buffer (pH 7.4) (FIG. 1b).
# [4] = system: Fab and Fc fragments of human IgG1; assay: Fluorescence increase with Fab and Fc fragments; format: binding; conditions: Fab vs Fc fragments of human monoclonal IgG1
# Experimental: FIGS. 6a and 6b show binding sensorgrams of Ig Orange (0.07, 0.21, 0.62, 1.86, 5.57 and 16.70 μM) upon injection across an immobilized immunoglobulin chip, which were fit using the equilibrium responses of a steady-state model. […] Values are represented as means (n=3) and error bars as standard deviations.
# In order to identify the region of human IgG to which Ig Orange binds, we evaluated the fluorescence response of Ig Orange in the presence of human polyclonal IgG and monoclonal IgG1, the most abundant subtype. […] To confirm this observation and determine the stoichiometry of the complex between Ig Orange and the full immunoglobulin, we analyzed the interaction by means of a Job plot. A maximum fluorescence increase was detected for a 2:1 Ig Orange:immunoglobulin ratio, which supported our observation that the preferred binding region of Ig Orange corresponded to the Fab fragments of the immunoglobulin (FIG. 7b). […] With this first adaptation of the BODIPY scaffold to a solid-phase approach we accelerated the development of alkylamino BODIPY-based fluorescent probes, being Ig Orange the first immunoglobulin fluorescent sensor.
# [5] = Quantum yield measurements; format: physicochemical; conditions: referred to Rhodamine B in EtOH, excitation 510 nm, emission integrated 540-800 nm
# Method in brief: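 Integrated fluorescence emission from 540 to 800 nm was referenced to Rhodamine B in EtOH (Φ=0.70) after excitation at 510 nm. Quantum yield was calculated with correction for solvent refractive index and absorbance at the excitation wavelength.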
# [6] = Spectroscopic properties of the BDM library (absorbance and emission maxima); format: physicochemical
# [7] = target: human IgG; assay: Surface plasmon resonance on immobilized immunoglobulin chip; format: binding; conditions: 25° C., read-out: KD (SPR, steady-state model)
# From the text: The following experiments were aimed at determining the dissociation constant of the interaction between Ig Orange and human IgG. Surface Plasmon Resonance (SPR) has been extensively used to measure the binding constants between small molecules and biopolymers, 25 and we modified human IgG with biotin so that it could be immobilized on a neutravidin-coated sensor chip. Upon immobilization of the biotinylated protein on a neutravidin-coated sensor chip CM7, we performed Ig Orange titrations in duplicate with increasing concentrations of the small molecule.
# Human IgG (5.0 mg, 0.033 μmol) and biotin-OSu (0.11 mg, 0.33 μmol) were dissolved in 0.1 M NaHCO3 (pH 8.5) and shaken for 1 h at 25° C. […] The fluorescence response of Ig Orange to IgG and biotinylated IgG was compared (FIG. 5). The concentration of biotinylated IgG before fluorescence and SPR experiments was determined by Bradford assay. […] Job Plot Analysis: Ig Orange (final concentrations: 0, 1.6, 3.2, 4.8, 6.4, 8.0, 9.6, 11.2, 12.8, 14.4, 16 μM) and human IgG (final concentrations: 16, 14.4, 12.8, 11.2, 9.6, 8.0, 6.4, 4.8, 3.2, 1.6, 0 μM) were incubated in PBS buffer (pH 7.3) containing 1% DMSO, and the fluorescence intensities of the different solutions were recorded on a SpectraMax M2 plate reader (excitation: 530 nm; emission: 590 nm). […]
compound,measurement,setting,value
CC1=CC(/C=C/c2ccc(/C=C/c3ccccc3)cc2)=[N+]2C1=C(CCN)c1cccn1[B-]2(F)F [BDM-69],higher fluorescence increase of Ig Orange relative to BD-69 vs. human IgG,[1],15 fold
same,Kd,[2],14.1 ± 0.9 µM
same,turn-on fluorescence increase in the presence of human IgG,[3]; 20 mM HEPES buffer pH 7.4,75 fold
same,selectivity profile against proteins and peptides,"[3]; 20 mM HEPES pH 7.4, exc 510 nm",best selectivity profile among the whole library
same,preferred binding region of the immunoglobulin,[4],preferred binding to the Fab region
same,φ (quantum yield),[5],0.32
same,λmax (ABS),[6],574 nm
same,λmax (EM),[6],594 nm
same,Kd,[7],71.7 ± 0.6 µM

# Reference: patent US9267949B2, “Alkylamino BODIPY dyes as selective fluorescent probes for proteins and mouse embryonic stem cells” (National University of Singapore, priority 2011, dated 2016)
